These results are taken from patent US20050288270A1, “New aminopyridine derivatives and their use as pharmaceuticals” (Pfizer Inc, priority 2004, published 2005).

The term pEC50 denotes −log10 of the EC50, conventionally taken in molar units. By Emax is commonly meant the maximal effect, on the per cent scale that the assay sets.

For one assay, the target named is D2 receptor (Homo sapiens, UniProt P14416). As to the kind of experiment: D3/D2 agonist assay, functional response at D2 receptor. In kind it is cell-based. The settings on record: at 1000 nM; relative to the maximal effect of pramipexole. The protocol:
(§1) Activity at the dopamine D3 receptor may be determined using the methods described in WO 2004/052372. […] Selectivity is calculated as the D2 EC50 value divided by the D3 EC50 value. Where the value of the D2 EC50 was >10000, a figure of 10000 was used in the calculation.

The target in a further assay is dopamine D3 receptor (Homo sapiens, UniProt P35462). As to the kind of experiment: D3/D2 agonist assay, functional potency at D3 receptor. In kind it is cell-based. Here is the method: as §1

pEC50: −log10 of the molar value.

Sequence of dopamine D3 receptor (P35462 whole entry): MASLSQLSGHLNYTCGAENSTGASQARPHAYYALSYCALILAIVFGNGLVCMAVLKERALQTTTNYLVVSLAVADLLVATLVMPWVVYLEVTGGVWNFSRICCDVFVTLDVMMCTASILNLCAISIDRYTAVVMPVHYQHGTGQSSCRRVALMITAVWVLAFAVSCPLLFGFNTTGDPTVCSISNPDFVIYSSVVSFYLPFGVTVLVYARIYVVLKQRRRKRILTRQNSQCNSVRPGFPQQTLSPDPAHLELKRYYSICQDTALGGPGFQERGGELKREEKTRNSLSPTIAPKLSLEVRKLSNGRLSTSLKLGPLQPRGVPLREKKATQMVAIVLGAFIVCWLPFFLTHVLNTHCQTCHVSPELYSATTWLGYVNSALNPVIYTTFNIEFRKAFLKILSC
Sequence of D2 receptor (P14416 whole entry): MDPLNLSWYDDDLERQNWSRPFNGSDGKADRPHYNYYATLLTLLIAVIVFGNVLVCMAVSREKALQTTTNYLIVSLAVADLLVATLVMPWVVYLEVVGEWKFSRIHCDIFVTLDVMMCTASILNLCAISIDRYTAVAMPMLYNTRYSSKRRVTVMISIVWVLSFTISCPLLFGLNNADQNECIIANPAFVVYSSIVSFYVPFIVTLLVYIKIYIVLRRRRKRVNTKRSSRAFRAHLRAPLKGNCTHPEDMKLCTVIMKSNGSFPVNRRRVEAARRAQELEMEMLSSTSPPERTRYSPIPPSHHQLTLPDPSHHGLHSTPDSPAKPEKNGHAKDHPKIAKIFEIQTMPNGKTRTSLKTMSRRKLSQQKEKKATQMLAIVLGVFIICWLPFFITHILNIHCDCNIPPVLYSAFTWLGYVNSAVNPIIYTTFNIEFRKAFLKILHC

As to `CCCN1CC(c2ccc(N)nc2)OCC1CO` (single isomer, unassigned) [Example 14, [6-(6-Aminopyridin-3-yl)-4-propylmorpholin-3-yl]methanol], the “response against the D2 receptor” value on D2 receptor worked out at 22%. Further, at dopamine D3 receptor (agonist, read-out: functional potency at the D3 receptor, expressed as an EC50), the pEC50 is 7.70. In addition, the Emax at dopamine D3 receptor (relative to the maximal effect of standard agent pramipexole, read-out: Emax (maximal response value)) turned out to be 98%.
